Assays:
lymphocytes = assay: aberrant enzyme activities in febrile children, lymphocytes (Table 7); assay type: cell-based, human
[1] = test system: metabolically active whole cell; assay: substrate panel in normals and HIV + patients, TB infection (Table 4); assay type: cell-based, human; design: unit not given here
Method: A panel of assay compounds are assembled consisting of Ala-aminopeptidase and Lys-aminopeptidase, Dipeptidyl peptidase IV (Ala-Ala)2 rhodamine 110 and Cathepsin D to indicate possible TB infection in AIDS related cases.
A panel Of enzymatic substrates is performed consisting of Ala-aminopeptidase and Lys-aminopeptidase, Dipeptidyl peptidase IV (Ala-Ala)2 rhodamine 110 and Cathepsin D to indicate possible TB infection in AIDS related cases.

[2] = test system: acute lympholytic Ficoll prepared lymphocytes; assay: amino peptidase activity in acute lymphocytic leukemia lymphocytes; assay type: cell-based, human; conditions: FIG. 4B
Text: The cell's ability to fight off an invader lies within its genetics and therefore cell type. The "readiness" however of any genetically capable group of cells to defend is different. A measure of this "readiness" is manifest in the available proteolytic enzymes contained within vacuoles or on the surface of the cell. The assay compound hydrolysis rate increases with increased mass of enzymes giving a picture of immune competence both in number of cells and activity level. […] Images were generated using Universal Imaging.

granulocytes = assay: aberrant enzyme activities in febrile children, granulocytes (Table 7); assay type: cell-based, human
monocytes = assay: aberrant enzyme activities in febrile children, monocytes (Table 7); assay type: cell-based, human
aminopeptidase [3] = conditions: cited from earlier work
aminopeptidase [4] = assay: inhibition of aminopeptidase reaction with (H-L-Asp)2 rhodamine 110; assay type: biochemical; conditions: approximately 10 mM; substrate (H-L-Asp)2 rhodamine 110
Text: The chemical nature of the buffer is important to the reactivity Of the assay compound with the cellular enzymes. […] In addition, the assay compound hydrolysis by the enzyme occurs at an increased rate of reaction.

[5] = test system: metabolically active cell; conditions: even when buffered
Method: Viability is confirmed with Trypan Blue or PI-FDA over a time period of 10 seconds to 30 minutes. If the viability of the cell sample at between one and three million cells/mL decreases by 10% then the salt of the compound is rejected and another salt of the assay compound is synthesized.

cathepsin B = conditions: cited from earlier work
dipeptide reagent = assay: effect of sodium chloride on dipeptide reagent; assay type: biochemical; conditions: 7 mM, pH 6.5 to 8.7
Text: Inhibitors and poisons (or toxins) are components that can be added to reduce the activity of non-targeted enzymes that provide competing reactions for the leaving group. Inhibitors are usually very selective for a particular enzyme. For example, EDTA only works with enzymes requiring Ca^+2, Mg^+2 and some other metals. […] Preferred inhibitors for particular enzymes are included in Table 1.

In the case of `CC(C)C[C@H](N)C(=O)Nc1ccc2c(c1)Oc1cc(NC(=O)[C@@H](N)CC(C)C)ccc1C21OC(=O)c2ccccc21` [LEU, (Leu)2 Rho 110], the “aberrant enzyme activity, LYMPHS” value (lymphocytes; P88 Enteritis) is reported as “+ (>0.25 Increase over normal range)”, the “aberrant enzyme activity, LYMPHS” value (lymphocytes; P89 Viral Stomatitis) is reported as “+ (>0.25 Increase over normal range)” and the “aberrant enzyme activity, LYMPHS” value (lymphocytes; P92 Adenitis) is reported as “+ (>0.25 Increase over normal range)”. For the same compound, the “aberrant enzyme activity, LYMPHS” value (lymphocytes; P95 Viral Syndrome) was “+ (>0.25 Increase over normal range)”, the “aberrant enzyme activity, LYMPHS” value (lymphocytes; P96 Viral Syndrome) was “+ (>0.25 Increase over normal range)” and the “aberrant enzyme activity, LYMPHS” value (lymphocytes; P97 Pyelonephritis) was “.smallcircle”. The “aberrant enzyme activity, LYMPHS” value (lymphocytes; P99 Viral Syndrome) was “.smallcircle”, the “aberrant enzyme activity, LYMPHS” value (lymphocytes; P101 Fever -- Unknown Origin) was “+ (>0.25 Increase over normal range)” and the “aberrant enzyme activity, LYMPHS” value (lymphocytes; P102 UTI) was “.smallcircle”. The “aberrant enzyme activity, LYMPHS” value (lymphocytes; P103 Viral Syndrome) was “+ (>0.25 Increase over normal range)”, the “MEAN DELTA FL” value ([1]; HIV + PATIENTS) was 130.5 and the “MEAN DELTA FL” value ([1]; NORMALS) was 259.6. The amino peptidase activity [2] was “lost their enzymatic activity”, the “aberrant enzyme activity, GRANS” value (granulocytes; P88 Enteritis) was “+ (>0.25 Increase over normal range)” and the “aberrant enzyme activity, GRANS” value (granulocytes; P89 Viral Stomatitis) was “+ (>0.25 Increase over normal range)”. The “aberrant enzyme activity, GRANS” value (granulocytes; P92 Adenitis) was “+ (>0.25 Increase over normal range)”, the “aberrant enzyme activity, GRANS” value (granulocytes; P95 Viral Syndrome) was “+ (>0.25 Increase over normal range)” and the “aberrant enzyme activity, GRANS” value (granulocytes; P96 Viral Syndrome) was “+ (>0.25 Increase over normal range)”. For the same compound, the “aberrant enzyme activity, GRANS” value (granulocytes; P97 Pyelonephritis) was “.smallcircle”, the “aberrant enzyme activity, GRANS” value (granulocytes; P99 Viral Syndrome) was “.smallcircle” and the “aberrant enzyme activity, GRANS” value (granulocytes; P101 Fever -- Unknown Origin) was “+ (>0.25 Increase over normal range)”. For the same compound, the “aberrant enzyme activity, GRANS” value (granulocytes; P102 UTI) was “.smallcircle”, the “aberrant enzyme activity, GRANS” value (granulocytes; P103 Viral Syndrome) was “+ (>0.25 Increase over normal range)” and the “aberrant enzyme activity, MONOS” value (monocytes; P88 Enteritis) was “+ (>0.25 Increase over normal range)”. For the same compound, the “aberrant enzyme activity, MONOS” value (monocytes; P89 Viral Stomatitis) was “+ (>0.25 Increase over normal range)”, the “aberrant enzyme activity, MONOS” value (monocytes; P92 Adenitis) was “+ (>0.25 Increase over normal range)” and the “aberrant enzyme activity, MONOS” value (monocytes; P95 Viral Syndrome) was “+ (>0.25 Increase over normal range)”. The “aberrant enzyme activity, MONOS” value (monocytes; P96 Viral Syndrome) was “+ (>0.25 Increase over normal range)”, the “aberrant enzyme activity, MONOS” value (monocytes; P97 Pyelonephritis) was “+ (>0.25 Increase over normal range)” and the “aberrant enzyme activity, MONOS” value (monocytes; P99 Viral Syndrome) was “.smallcircle”. The “aberrant enzyme activity, MONOS” value (monocytes; P101 Fever -- Unknown Origin) was “+ (>0.25 Increase over normal range)”, the “aberrant enzyme activity, MONOS” value (monocytes; P102 UTI) was “.smallcircle” and the “aberrant enzyme activity, MONOS” value (monocytes; P103 Viral Syndrome) was “+ (>0.25 Increase over normal range)”.
For `CC(C)C[C@H](NC(=O)[C@@H](O)[C@H](N)Cc1ccccc1)C(=O)O` [bestatin], the inhibition of aminopeptidase (aminopeptidase [3]) is listed as “selectively inhibits aminopeptidase”.
With `[Ca+2].[Cl-].[Cl-]` [calcium chloride] the “inhibitory to the enzyme reaction” value (aminopeptidase [4]) was “inhibitory”.
In the case of `Br.Cc1ncc(C)n2nc(CCc3nc(-c4ccccc4)cn3C)nc12` [hydrogen bromide (HBr), hydrogen bromide], the cell killing [5] is reported as “kills cells”.
In the case of `CC(=O)N[C@@H](CC(C)C)C(=O)N[C@@H](CC(C)C)C(=O)N[C@H](C=O)CCCNC(=N)N` [leupeptin], the “inhibition of cathepsin B” value (cathepsin B) is listed as “selectively inhibits cathepsin B”.
In the case of `[Cl-].[Na+]` [sodium chloride], the “inhibitory effect on dipeptide reagent” value (dipeptide reagent) is reported as “slightly inhibitory effect”.
